Reference: patent US20200109429A1, “Methods and Systems for Cell-Free Biodiscovery of Natural Products” (Synvitrobio, Inc., priority 2017, published 2020)
Converted amounts (≈) assume the structure as drawn. Where two headings read alike, the source gives them in different places. Where a SMILES comes first, the peptide text is derived from it. Bridges are numbered along the chain shown (N, C = ends).

What was measured:
[1] = 121 C for 10 min heat step; cited from earlier work
E. coli [2] = conditions: cited from earlier work
E. coli [3] = assay type: cell-based; conditions: purified microcin J25 added to cellular reactions, E. coli cell death
Experimental: (A) Cell-free assay of mccj25 activity. […] (B) Inhibition of E. coli in vivo growth by purified microcin J25. Data, final concentrations.
It is seen in FIG. 7B that adding purified microcin J25 to cellular reactions causes cell death with a MIC of 0.1 uM. If microcin J25 produced in cell-free systems is at high enough concentration, those skilled in the art will recognize that the MIC curve for killing live E. coli will be the similar. However, avoiding phage in the reaction is essential to ensure that the MIC is accurate and not caused by propogation of infecting phage carried over in a typical cell-free reaction that is contaminated with phage.

E. coli RNA polymerase [4] = target: T1, E. coli RNA polymerase (Escherichia coli, UniProt P0A8T7+P0A8V2); assay type: biochemical; set-up: endogenous in cells; host or cells: E. coli cell-free lysate (extract eZS6 or eAC15, prepared per Sun et al. 2013); conditions: lasso cluster co-expressed with sigma70 GFP reporter in E. coli cell-free system
T1 sequence (P0A7Z4 whole entry): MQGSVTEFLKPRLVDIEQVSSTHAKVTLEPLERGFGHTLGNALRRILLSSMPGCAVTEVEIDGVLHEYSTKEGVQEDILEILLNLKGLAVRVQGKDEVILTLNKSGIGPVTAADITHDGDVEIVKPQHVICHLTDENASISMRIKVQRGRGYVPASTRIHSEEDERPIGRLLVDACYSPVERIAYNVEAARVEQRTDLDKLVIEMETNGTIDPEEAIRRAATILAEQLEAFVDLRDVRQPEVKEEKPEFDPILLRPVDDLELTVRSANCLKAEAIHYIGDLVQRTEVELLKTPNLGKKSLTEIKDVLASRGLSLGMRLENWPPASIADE
T1 sequence (P0A8V2 whole entry): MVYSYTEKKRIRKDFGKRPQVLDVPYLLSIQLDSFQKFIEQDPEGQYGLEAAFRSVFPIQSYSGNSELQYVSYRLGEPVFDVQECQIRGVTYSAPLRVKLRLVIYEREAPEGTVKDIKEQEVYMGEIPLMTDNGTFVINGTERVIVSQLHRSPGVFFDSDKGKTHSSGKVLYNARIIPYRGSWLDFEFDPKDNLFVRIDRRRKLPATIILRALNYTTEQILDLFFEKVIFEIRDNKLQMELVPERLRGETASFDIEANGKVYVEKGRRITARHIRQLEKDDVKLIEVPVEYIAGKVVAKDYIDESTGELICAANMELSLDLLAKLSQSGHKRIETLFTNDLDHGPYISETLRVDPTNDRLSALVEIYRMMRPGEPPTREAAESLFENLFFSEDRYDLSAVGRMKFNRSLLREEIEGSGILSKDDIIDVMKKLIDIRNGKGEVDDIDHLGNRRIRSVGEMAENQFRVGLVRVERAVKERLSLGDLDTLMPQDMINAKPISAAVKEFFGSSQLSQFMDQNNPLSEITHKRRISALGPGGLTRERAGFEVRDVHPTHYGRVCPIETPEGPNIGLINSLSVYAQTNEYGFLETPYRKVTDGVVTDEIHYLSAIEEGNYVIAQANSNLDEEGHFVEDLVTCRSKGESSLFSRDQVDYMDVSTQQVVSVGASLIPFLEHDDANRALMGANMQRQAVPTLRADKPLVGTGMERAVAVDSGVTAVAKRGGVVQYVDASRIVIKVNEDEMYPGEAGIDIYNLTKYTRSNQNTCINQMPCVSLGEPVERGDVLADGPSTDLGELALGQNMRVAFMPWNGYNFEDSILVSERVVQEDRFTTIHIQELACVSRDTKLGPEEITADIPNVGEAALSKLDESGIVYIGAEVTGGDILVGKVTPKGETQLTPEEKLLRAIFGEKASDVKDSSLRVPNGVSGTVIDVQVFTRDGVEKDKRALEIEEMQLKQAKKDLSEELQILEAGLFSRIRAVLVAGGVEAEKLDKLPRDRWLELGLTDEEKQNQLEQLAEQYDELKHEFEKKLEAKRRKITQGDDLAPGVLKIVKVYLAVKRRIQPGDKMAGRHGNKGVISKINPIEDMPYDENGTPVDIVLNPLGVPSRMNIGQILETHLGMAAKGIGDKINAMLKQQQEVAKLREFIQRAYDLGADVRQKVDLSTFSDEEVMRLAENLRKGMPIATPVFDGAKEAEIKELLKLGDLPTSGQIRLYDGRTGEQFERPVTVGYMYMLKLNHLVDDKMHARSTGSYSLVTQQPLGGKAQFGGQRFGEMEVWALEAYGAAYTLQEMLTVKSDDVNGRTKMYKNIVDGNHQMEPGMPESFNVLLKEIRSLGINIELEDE
T1 sequence (P00579 whole entry, further chain): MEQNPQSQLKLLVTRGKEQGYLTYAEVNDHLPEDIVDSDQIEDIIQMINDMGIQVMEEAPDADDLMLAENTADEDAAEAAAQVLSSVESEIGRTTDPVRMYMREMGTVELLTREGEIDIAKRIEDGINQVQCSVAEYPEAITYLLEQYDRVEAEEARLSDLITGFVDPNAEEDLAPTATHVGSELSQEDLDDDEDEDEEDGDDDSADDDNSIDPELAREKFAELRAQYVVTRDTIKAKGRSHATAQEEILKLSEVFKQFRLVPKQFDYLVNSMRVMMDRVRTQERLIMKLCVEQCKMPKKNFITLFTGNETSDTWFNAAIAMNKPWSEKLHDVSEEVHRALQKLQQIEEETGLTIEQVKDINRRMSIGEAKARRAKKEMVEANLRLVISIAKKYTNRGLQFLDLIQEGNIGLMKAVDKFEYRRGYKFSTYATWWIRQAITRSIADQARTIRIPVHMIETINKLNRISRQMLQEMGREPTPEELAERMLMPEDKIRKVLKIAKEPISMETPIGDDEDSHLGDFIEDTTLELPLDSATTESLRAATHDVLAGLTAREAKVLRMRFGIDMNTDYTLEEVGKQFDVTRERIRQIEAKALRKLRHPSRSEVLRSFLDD
T1 sequence (P0A8T7 whole entry): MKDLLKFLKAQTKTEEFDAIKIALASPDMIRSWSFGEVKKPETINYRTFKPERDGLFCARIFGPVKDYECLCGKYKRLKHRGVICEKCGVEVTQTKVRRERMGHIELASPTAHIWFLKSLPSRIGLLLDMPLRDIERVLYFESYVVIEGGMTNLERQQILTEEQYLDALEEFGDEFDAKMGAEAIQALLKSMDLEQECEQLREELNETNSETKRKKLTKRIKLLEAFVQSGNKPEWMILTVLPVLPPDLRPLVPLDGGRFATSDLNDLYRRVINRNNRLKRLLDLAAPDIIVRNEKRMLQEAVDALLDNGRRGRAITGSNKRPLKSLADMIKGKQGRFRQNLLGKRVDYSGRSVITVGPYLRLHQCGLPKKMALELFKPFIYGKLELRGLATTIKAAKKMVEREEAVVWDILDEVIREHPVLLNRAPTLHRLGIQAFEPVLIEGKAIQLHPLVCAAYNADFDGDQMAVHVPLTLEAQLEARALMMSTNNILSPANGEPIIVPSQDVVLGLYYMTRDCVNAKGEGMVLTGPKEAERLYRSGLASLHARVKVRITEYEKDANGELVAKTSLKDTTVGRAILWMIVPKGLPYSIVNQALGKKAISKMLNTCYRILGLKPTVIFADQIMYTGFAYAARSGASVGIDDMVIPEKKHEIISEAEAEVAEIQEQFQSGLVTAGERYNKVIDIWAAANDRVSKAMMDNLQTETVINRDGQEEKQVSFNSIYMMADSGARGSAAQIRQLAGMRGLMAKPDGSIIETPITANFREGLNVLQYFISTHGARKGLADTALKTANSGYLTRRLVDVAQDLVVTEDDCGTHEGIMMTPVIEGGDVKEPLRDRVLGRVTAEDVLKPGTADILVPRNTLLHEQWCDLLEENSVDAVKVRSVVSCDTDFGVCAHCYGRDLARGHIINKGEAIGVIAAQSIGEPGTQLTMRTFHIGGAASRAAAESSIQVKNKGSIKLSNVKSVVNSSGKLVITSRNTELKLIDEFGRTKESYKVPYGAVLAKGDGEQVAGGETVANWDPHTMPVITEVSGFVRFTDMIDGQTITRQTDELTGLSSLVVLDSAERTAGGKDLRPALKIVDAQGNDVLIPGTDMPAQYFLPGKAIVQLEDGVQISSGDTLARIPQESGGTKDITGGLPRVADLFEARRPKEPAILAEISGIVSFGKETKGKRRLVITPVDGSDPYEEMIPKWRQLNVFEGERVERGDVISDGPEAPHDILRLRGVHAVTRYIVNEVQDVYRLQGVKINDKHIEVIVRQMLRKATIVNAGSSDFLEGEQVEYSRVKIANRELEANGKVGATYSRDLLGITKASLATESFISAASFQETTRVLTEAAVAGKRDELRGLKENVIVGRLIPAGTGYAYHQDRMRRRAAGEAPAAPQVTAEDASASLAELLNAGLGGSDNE
T1 sequence (P0A800 whole entry, further chain): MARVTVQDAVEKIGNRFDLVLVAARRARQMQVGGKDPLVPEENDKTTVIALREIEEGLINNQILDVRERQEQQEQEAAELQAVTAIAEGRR
Experimental: All reactions contain 40019 in plasmid form at 2.66 nM, and the reaction is done in E. coli extract “eZS6” at 25% lysate, 75% buffer concentration, prepared as listed in (Sun et al., 2013) or “eAC15” at 30% lysate, 70% buffer concentration. GFP concentration was kept at 2 nM, and the other components kept at a total of 6 nM to control for competition affects.
These are run in a E. coli-based cell-free lysate system in different concentrations, as listed by nM concentrations described in the chart, with all reactions containing 4 nM sigma70-UTR1-GFP and 3.5 μM gamS to protect linear templates.
Our expression system incorporates these coding sequences individually with a sigma70 promoter, UTR and terminator. […] A GFP construct (40019 in linear) was assembled in the same way. Linear DNAs were generated either by PCR amplification from plasmid or the DNA assemblies themselves. We used 3.5 μM GamS to prevent template degradation in E. coli lysate. Reactions were run at 10 μl scale in a 384-well format. The reaction is done in E. coli extract “eZS6” at 25% lysate, 75% buffer concentration, prepared as listed in (Sun et al., 2013). Timecourses of GFP intensity were taken, and 12 hr endpoints were used to generate the heatmap. GFP intensity of lasso-cluster-containing reaction was normalized to their paired negative controls.
We expressed our GFP construct in the same reactions as our lasso constructs. GFP (4009 in linear) was expressed at 4 nM and the lasso cluster genes at 0.6 nM.

Salmonella = conditions: mouse models; cited from earlier work
E. coli RNA polymerase [5] = target: T1, E. coli RNA polymerase; conditions: has been shown previously; cited from earlier work
[6] = assay type: in vitro ADME, E. coli
Experimental: Linear constructs were expressed in 10 μl cell free reactions with 2% flurotect (a tRNA carrying a BODIPY labelled lysine) and 8 nM DNA constructs for MBP-A or MBP (1065, 1066). 2 μl of these reactions were prepared in 20 μl sample buffer (50 mM bis-Tris, 2% SDS, 10% glycerol) and run on a 4-12% bis-tris PAGE gel (ThermoFisher Scientific) at 200V for 20 min.
To stabilize mcjA, the peptide can be tagged either on the N terminus or the C terminus as a fusion protein that provides a stable domain that prevents proteolysis of mcjA. A linker and/or targeting region can be added to remove the tag. In an example, we tag mcjA with a maltose binding protein (MBP), generating a construct 1065 (SEQ ID NO.: 19) and compare the expression of 1065 to a wildtype MBP, 1066 (SEQ ID NO.: 20). In a SDS-PAGE gel expressing both constructs in FIG. 18, the expressed fusion protein was stable and easily visualized on a gel.

Question: With CC[C@H](C)[C@H](NC(=O)CNC(=O)[C@@H](NC(=O)[C@H](Cc1ccccc1)NC(=O)[C@H](Cc1ccc(O)cc1)NC(=O)[C@@H]1CCC(=O)NCC(=O)NCC(=O)N[C@@H](C)C(=O)NCC(=O)N[C@@H](Cc2cnc[nH]2)C(=O)N[C@@H](C(C)C)C(=O)N2CCC[C@H]2C(=O)N1)C(C)C)C(=O)NCC(=O)N[C@H](C(=O)N1CCC[C@H]1C(=O)N[C@H](C(=O)N[C@@H](CO)C(=O)N[C@@H](Cc1ccccc1)C(=O)N[C@@H](Cc1ccc(O)cc1)C(=O)NCC(=O)O)[C@@H](C)CC)[C@@H](C)O [microcin J25] (GGAGHVPEYFVGIGTPISFYG-OH; lactam N-8) as the compound, how does the heat stability [1] read?
Answer: Its heat stability is “heat-stable”.

Question: Which MIC (E. coli [2]) does the source give for CC[C@H](C)[C@H](NC(=O)CNC(=O)[C@@H](NC(=O)[C@H](Cc1ccccc1)NC(=O)[C@H](Cc1ccc(O)cc1)NC(=O)[C@@H]1CCC(=O)NCC(=O)NCC(=O)N[C@@H](C)C(=O)NCC(=O)N[C@@H](Cc2c[nH]cn2)C(=O)N[C@@H](C(C)C)C(=O)N2CCC[C@H]2C(=O)N1)C(C)C)C(=O)NCC(=O)N[C@H](C(=O)N1CCC[C@H]1C(=O)N[C@H](C(=O)N[C@@H](CO)C(=O)N[C@@H](Cc1ccccc1)C(=O)N[C@@H](Cc1ccc(O)cc1)C(=O)NCC(=O)O)[C@@H](C)CC)[C@@H](C)O [microcin J25] (GGAGHVPEYFVGIGTPISFYG-OH; lactam N-8; C-terminus assumed) here?
Answer: The MIC was 0.02 µg/mL (≈ 9.49 nM).

Question: What about the MIC (E. coli [3]) of the same compound?
Answer: Its MIC is 0.1 µM (≈ 0.211 µg/mL).

Question: And the “knockdown of GFP expression / native RNA polymerase” value (E. coli RNA polymerase [4])?
Answer: Its value is “knocks down GFP expression”.

Question: And the “knockdown of GFP expression / native RNA polymerase” value (E. coli RNA polymerase [4]; listed as microcinJ25)?
Answer: The value was “functional knockdown”.

Question: And the “decrease in Salmonella infection” value (Salmonella)?
Answer: Its value is 3 fold.

Question: With caulosegnin as the compound, how does the “RNA polymerase inhibitory activity” value (E. coli RNA polymerase [5]) read?
Answer: The value was “not to have RNA polymerase inhibitory activity”.

Question: What about the “knockdown of GFP expression / native RNA polymerase” value (E. coli RNA polymerase [4]) of the same compound?
Answer: Its value is “no effect on GFP expression”.

Question: For klebsidin, which “knockdown of GFP expression / native RNA polymerase” value (E. coli RNA polymerase [4]) is on record?
Answer: The value was “functional knockdown”.

Question: With “mcjA: peptide precursor (propeptide) of microcin J25 (MIKHFHFNKLSSGKKNNVPSPAKGVIQIKKSASQLTKGGAGHVPEYFVGIGTPISFYG; full-length; UniProt Q9X2V7 1-58, looked up)” as the compound, how does the “stability when expressed in E. coli cell-free systems” value [6] read?
Answer: Its value is “known to degrade”.
